According to ChEMBL document CHEMBL1201862, “PubChem BioAssay data set” (2004):
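Each compound was tested at five concentrations against cells in 96-well plates for 48 hours. Here, GI50 denotes the concentration required for 50% inhibition of growth.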 Active and inactive are the calls of the source. No stated cut-off is given here; in the data, active = GI50 up to about 1.1 µM and inactive = higher.

Columns and labels:
Assay in all cases: NCI tumour cell line growth inhibition, 48 h
RXF 393 = system: RXF 393
UACC-62 = system: UACC-62
T47D = system: T47D
MOLT-4 = system: MOLT-4
A498 = system: A498
HCC 2998 = system: HCC 2998
HCT-116 = system: HCT-116
SK-OV-3 = system: SK-OV-3
SK-MEL-2 = system: SK-MEL-2
TK-10 = system: TK-10
MCF7 = system: MCF7
SK-MEL-5 = system: SK-MEL-5
OVCAR-4 = system: OVCAR-4
LOX IMVI = system: LOX IMVI
K562 = system: K562
EKVX = system: EKVX
MDA-MB-435 = system: MDA-MB-435
U-251 = system: U-251
NCI-H460 = system: NCI-H460

Measured: GI50

Cc1ccsc1/C=N/Nc1nncc2ccccc12
inactive: RXF 393 15.8 µM | UACC-62 > 100 µM | T47D > 100 µM | MOLT-4 44.8 µM | A498 > 100 µM | HCC 2998 > 100 µM | HCT-116 > 100 µM | SK-OV-3 70.6 µM | SK-MEL-2 14.1 µM | TK-10 > 100 µM | MCF7 37 µM | SK-MEL-5 96.4 µM | OVCAR-4 > 100 µM | LOX IMVI 97.1 µM | K562 > 100 µM | EKVX > 100 µM | MDA-MB-435 > 100 µM | U-251 58.3 µM

COC(=O)CCCC(=O)C1=NN(c2ccc(Cl)cc2)Cc2ccccc2N1
inactive: RXF 393 86.1 µM | UACC-62 27.3 µM | T47D 5.56 µM | MOLT-4 > 100 µM | A498 36.1 µM | HCC 2998 > 100 µM | HCT-116 > 100 µM | SK-OV-3 > 100 µM | SK-MEL-2 > 100 µM | TK-10 > 100 µM | MCF7 75.9 µM | SK-MEL-5 > 100 µM | OVCAR-4 20.7 µM | LOX IMVI > 100 µM | K562 > 100 µM | EKVX 70.6 µM | MDA-MB-435 > 100 µM | U-251 > 100 µM

O=C(OCC1CCCN2CCCCC12)c1cccnc1 (stereo not given)
inactive: RXF 393 > 100 µM | UACC-62 > 100 µM | T47D > 100 µM | MOLT-4 > 100 µM | A498 > 100 µM | HCC 2998 > 100 µM | HCT-116 > 100 µM | SK-OV-3 > 100 µM | SK-MEL-2 > 100 µM | TK-10 > 100 µM | MCF7 > 100 µM | SK-MEL-5 > 100 µM | OVCAR-4 > 100 µM | LOX IMVI > 100 µM | K562 > 100 µM | NCI-H460 > 100 µM | EKVX > 100 µM | MDA-MB-435 > 100 µM | U-251 > 100 µM

Cc1c([C@H](C)[C@@H]2NC[C@@H](C)C[C@H]2O)ccc2c1C[C@H]1[C@H]2CC=C2C[C@@H](O)CC[C@@]21C [VERATRAMINE]
inactive: RXF 393 17.5 µM | UACC-62 13 µM | T47D 12.9 µM | MOLT-4 13.1 µM | A498 15.2 µM | HCC 2998 13.2 µM | HCT-116 14.3 µM | SK-OV-3 23.8 µM | TK-10 24.4 µM | MCF7 15.4 µM | SK-MEL-5 10.8 µM | OVCAR-4 12.6 µM | LOX IMVI 11.6 µM | K562 12.1 µM | NCI-H460 16.9 µM | EKVX 2.34 µM | MDA-MB-435 12.9 µM | U-251 14 µM

O=C(Nc1ccc(S(=O)(=O)/N=c2\ncccn2C(=O)C(C(F)(F)F)C(F)(F)F)cc1)C(C(F)(F)F)C(F)(F)F
inactive: RXF 393 > 100 µM | UACC-62 > 100 µM | T47D > 100 µM | MOLT-4 > 100 µM | A498 > 100 µM | HCC 2998 > 100 µM | HCT-116 > 100 µM | SK-OV-3 > 100 µM | SK-MEL-2 > 100 µM | TK-10 > 100 µM | MCF7 > 100 µM | SK-MEL-5 > 100 µM | OVCAR-4 > 100 µM | LOX IMVI > 100 µM | K562 > 100 µM | NCI-H460 > 100 µM | EKVX > 100 µM | MDA-MB-435 > 100 µM | U-251 > 100 µM

CN(C)/C=C/c1nnc([N+](=O)[O-])s1
inactive: RXF 393 14.7 µM | UACC-62 16.4 µM | T47D 15.3 µM | A498 32 µM | HCC 2998 17.3 µM | HCT-116 5.94 µM | SK-OV-3 20.7 µM | SK-MEL-2 17.2 µM | TK-10 25.9 µM | MCF7 2.17 µM | SK-MEL-5 12 µM | LOX IMVI 2.69 µM | NCI-H460 11.6 µM | MDA-MB-435 3.69 µM | U-251 17.7 µM

CC1=C(C(=O)N(C(C)C)C(C)C)CC(C(=O)N(C(C)C)C(C)C)=C(C)N1
inactive: RXF 393 > 100 µM | UACC-62 > 100 µM | T47D 49.3 µM | MOLT-4 > 100 µM | A498 35.8 µM | HCC 2998 > 100 µM | HCT-116 > 100 µM | SK-OV-3 > 100 µM | SK-MEL-2 > 100 µM | TK-10 > 100 µM | MCF7 > 100 µM | SK-MEL-5 > 100 µM | OVCAR-4 > 100 µM | LOX IMVI > 100 µM | K562 > 100 µM | NCI-H460 > 100 µM | EKVX > 100 µM | MDA-MB-435 79.8 µM | U-251 > 100 µM

Cc1cn(CC2=NCC(O)CN2)c(=O)[nH]c1=O (stereo not given)
inactive: RXF 393 > 100 µM | UACC-62 > 100 µM | T47D > 100 µM | MOLT-4 > 100 µM | A498 > 100 µM | HCC 2998 > 100 µM | HCT-116 > 100 µM | SK-OV-3 > 100 µM | SK-MEL-2 > 100 µM | TK-10 > 100 µM | MCF7 > 100 µM | SK-MEL-5 > 100 µM | OVCAR-4 > 100 µM | LOX IMVI > 100 µM | K562 > 100 µM | NCI-H460 > 100 µM | EKVX > 100 µM | MDA-MB-435 > 100 µM | U-251 > 100 µM
